Test: Theaflavins feeding model (optical density)
Format: physicochemical
Procedure: A 3 mg/mL aqueous solution of theaflavins was prepared at 80 degrees Celsius. 0.625 mg/mL aqueous solutions of whey protein isolate and iota carrageenan were prepared and all three solutions combined to yield a solution with 1.5 mg/mL theaflavins, 0.156 mg/mL whey protein isolate and 0.156 mg/mL iota carrageenan. The following feeding programme was used with the 3 mg/mL aqueous solution of theaflavins being either at ambient temperature (reference “Procedure B”) or at 80 degrees Celsius (reference “Procedure A”) when combined with the ambient temperature 0.625 mg/mL aqueous solutions of whey protein isolate and iota carrageenan:
TF+WPI/IC: 25 mL whey protein isolate solution and 25 mL iota carrageenan solution are premixed and added to 50 mL theaflavins solution. TF+IC: 25 mL iota carrageenan solution is added to 50 mL of theaflavins solution and 25 mL of deionised water added. TF+WPI: 25 mL whey protein isolate solution is added to 50 mL of theaflavins solution and 25 mL of deionised water added. TFWPI+IC: 25 mL whey protein isolate solution is added to 50 mL theaflavins solution, and then 25 mL iota carrageenan solution is added after 10 minutes. […]
All the samples were stored at 4 degrees Celsius for 24 hours in order to equilibrate the tea creaming process before measurement of turbidity at 600 nm with a Safire2™ microplate reader (Tecan Group Ltd.).

## Iota carrageenan
  Effect on solubility of theaflavin: decreases the solubility of theaflavin

Source: US20100222439A1, “BEVERAGE CONTAINING A POLYMERIC POLYPHENOL” (CONOPCO, INC., D/B/A UNILEVER, priority 2009, published 2010)
